Results reported in US11957728B2, “Compositions for targeting receptor for advanced glycation end-products (RAGE) in a chronic inflammatory condition” (Sami-Sabinsa Group Limited, priority 2020, dated 2024).

Columns and labels:
[1] = tested on: formation of AGE (bovine serum albumin + D-Ribose); experiment: In vitro anti-glycation assay (BSA + D-Ribose, fluorescence Ex/Em 390/460 nm, 24 h); format: biochemical
Description: Glycation is the non-enzymatic glycosylation reaction involving amino groups of proteins, lipids, or nucleic acids with sugar aldehyde or keto groups resulting in the formation of advanced glycosylation end-products (AGE) (Yamagishi et al. Pathologic role of dietary advanced glycation end products in cardiometabolic disorders, and therapeutic intervention, Nutrition, 32(2), 157-65 (2016)). The reactive carbonyls of sugars combine with amino groups of a protein, lipid or nucleic acid generating Schiff bases, which rearrange to Amadori products. In a series of slow reactions, the Amadori reactions, Schiff base and Maillard reactions, ultimately form AGE. Although glycation is slow in vivo, the glycation products have long-lasting effects. The effect of test substances on preventing the formation of AGE was evaluated in vitro
Anti-glycation activity was evaluated as described earlier (Sero et al. Tuning a 96-Well Microtiter Plate Fluorescence-Based Assay to Identify AGE Inhibitors in Crude Plant Extracts) Briefly, 10 μl of various sample concentrations were added to 40 μl of 25 mg/ml bovine serum albumin and 50 μl of 150 mg/ml D-Ribose in a 96 well black microplate. D-Ribose with buffer served as control. The plate containing the mixture was incubated for 24 h at 37° C. The advanced glycation product was detected by measuring the fluorescence intensity at Ex/Em of 390/460 nm by using BMG FLUOstar Optima Microplate reader.

IL-6 = IL-6 expression in pancreas of HFFD diabetic rats (qRT-PCR); format: in vivo, Wistar Rats; details: Diabetic 1.60 ± 0.09
Description: (§1) Wistar Rats (150 g) were given High fat and fructose diet (HFFD) to induced type 2 diabetes (T2D). HFFD induces the development of diabetes associated with long term metabolic disorders including Fasting hyperglycemia, pre- and post-prandial hyperinsulinemia, Insulin resistance, Glucose intolerance and Dyslipidemia. Animals in HFFD show complications associated with T2D such as hepatic steatosis complicated by fibrosis, inflammation, hyperleptinemia and endothelial dysfunction. Rats were co administered with AC3 (100 mg/kg), BAP (200 μg/kg) BAP+AC3 (200 μg+100 mg/kg) BAP+AC3 (50 μg+100 mg/kg) and Metformin as positive control at 100 mg/kg along with HFFD for 90 days (Table 4). The organs were collected at the end of the experiment to evaluate the effect of the supplements on RAGE expression, oxidative stress and inflammation. […] from pancreas sample using the trizol method. […] First-strand cDNA was prepared from RNA samples using oligo dT primers and Superscript III reverse transcriptase (cDNA synthesis kit, Invitrogen™) Quantitative real-time PCR (qRT-PCR) was performed with SYBR Green I fluorescent dye using Light cycler 96 according to the manufacturer's instructions (Light Cycler® FastStart DNA Master SYBR Green I, Roche). […] The gene expression of the target gene in each test sample was determined by relative quantification using the comparative Ct (ΔΔCt) method.

TNF-α = TNF-α expression in pancreas of HFFD diabetic rats (qRT-PCR); format: in vivo, Wistar Rats; details: Diabetic 1.73 ± 0.34
Description: as §1

[2] = tested on: inflammatory marker (TNF-α, IL6, IL-1β); experiment: Inflammatory cytokine expression in pancreas of HFFD diabetic rats, overall statements; format: in vivo, Wistar Rats; details: BAP 200 ug/kg; AC3 100 mg/kg; combinations; p<0.05
Description: as §1

RAGE = RAGE expression in pancreas of HFFD-induced diabetic rats (qRT-PCR); format: in vivo, Wistar Rats
Description: as §1

[3] = tested on: reactive oxygen species (ROS); experiment: Oxidative stress in tissue homogenates (DCFDA fluorescence) of HFFD diabetic rats; format: in vivo, Wistar Rats; details: for Relative Fluorescence Intensity, Average: Normal 6.5, Diabetic 23.8
Description: Wistar Rats (150 g) were given High fat and fructose diet (HFFD) to induced type 2 diabetes (T2D). HFFD induces the development of diabetes associated with long term metabolic disorders including Fasting hyperglycemia, pre- and post-prandial hyperinsulinemia, Insulin resistance, Glucose intolerance and Dyslipidemia. Animals in HFFD show complications associated with T2D such as hepatic steatosis complicated by fibrosis, inflammation, hyperleptinemia and endothelial dysfunction.
Rats were co administered with AC3 (100 mg/kg), BAP (200 μg/kg) BAP+AC3 (200 μg+100 mg/kg) BAP+AC3 (50 μg+100 mg/kg) and Metformin as positive control at 100 mg/kg along with HFFD for 90 days (Table 4). The organs were collected at the end of the experiment to evaluate the effect of the supplements on RAGE expression, oxidative stress and inflammation.
The level of oxidative stress in tissue was estimated by using 20,70-dichlorofluorescin diacetate (DCFDA), a fluorogenic dye that measures hydroxyl, peroxyl, and other reactive oxygen species (ROS) activity. Briefly, an aliquot of the tissue homogenates (10 μL) were mixed with 150 μL ethanol solution of DCFDA to the final concentration of 10 mM. After incubation for 30 min at room temperature in dark, the fluorescence was measured with the excitation and emission wavelengths of 488 and 520 nm. Higher the fluorescence, higher is the oxidative stress. oxidative stress is decreased in the subject, and brought about by curcuminoids. BAP, or their combination.

IL-1β = IL-1β expression in pancreas of HFFD diabetic rats (qRT-PCR); format: in vivo, Wistar Rats; details: Diabetic 1.66 ± 0.04
Description: as §1

[4] = target: DPP4 (Dipeptidyl-peptidase 4) (Homo sapiens, UniProt P27487); experiment: Inhibition of DPP4 enzyme; format: biochemical; design: Anti-DPP4 activity: unit of the concentration uncertain
glycation = experiment: Anti-glycation activity of curcuminoids at 24 and 72 hrs (320/405); format: biochemical

DPP4 (Dipeptidyl-peptidase 4), sequence (P27487 whole entry, species assumed): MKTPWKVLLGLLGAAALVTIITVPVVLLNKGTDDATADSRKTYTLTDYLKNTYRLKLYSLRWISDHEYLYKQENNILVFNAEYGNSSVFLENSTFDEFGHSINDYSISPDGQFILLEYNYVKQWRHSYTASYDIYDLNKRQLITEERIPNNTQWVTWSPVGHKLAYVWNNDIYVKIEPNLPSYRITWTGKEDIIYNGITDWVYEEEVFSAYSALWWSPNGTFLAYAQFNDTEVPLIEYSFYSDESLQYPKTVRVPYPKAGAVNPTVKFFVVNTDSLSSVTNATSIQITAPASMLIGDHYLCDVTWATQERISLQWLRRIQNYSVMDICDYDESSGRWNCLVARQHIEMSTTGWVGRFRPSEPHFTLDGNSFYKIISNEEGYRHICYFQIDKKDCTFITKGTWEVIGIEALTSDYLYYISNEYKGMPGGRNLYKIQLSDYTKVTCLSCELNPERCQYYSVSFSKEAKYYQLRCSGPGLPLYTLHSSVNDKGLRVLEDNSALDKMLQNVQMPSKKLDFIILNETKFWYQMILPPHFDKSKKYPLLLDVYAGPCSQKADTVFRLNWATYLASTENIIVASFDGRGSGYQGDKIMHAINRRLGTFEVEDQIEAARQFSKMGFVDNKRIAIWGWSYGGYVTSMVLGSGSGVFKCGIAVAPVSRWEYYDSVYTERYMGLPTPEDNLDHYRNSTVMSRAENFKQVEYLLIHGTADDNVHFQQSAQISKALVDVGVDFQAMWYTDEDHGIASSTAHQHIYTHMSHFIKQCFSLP

SMILES: CCCCCCCCCCCCCCCC(=O)O[C@H]1CC[C@]2(C)[C@H]3CC=C4[C@@H]5CC(C)(C)CC[C@]5(C)CC[C@@]4(C)[C@]3(C)CC[C@H]2C1(C)C [BAP, β-amyrin palmitate]
- Percentage Inhibition ([1]; BAP 1 μg/mL): 0%
- Percentage Inhibition ([1]; BAP 2 μg/mL): 11.92%
- Percentage Inhibition ([1]; BAP 4 μg/mL): 9.67%
- Inhibition of AGE formation (in words) ([1]; in vitro, BSA + ribose): poor inhibitor of AGE formation
- Expression level of IL-6 (Normal = 1) (IL-6; BAP 200 μg/kg): 2.09 ± 0.08
- Expression level of TNF-α (Normal = 1) (TNF-α; BAP 200 μg/kg): 2.01 ± 0.31
- Reduction of inflammatory cytokine expression in pancreas (in words) [2]: not effective
- Effect on pancreatic RAGE expression (RAGE; BAP 200 μg/kg, 90 days with HFFD, vs diabetic rats): no effect
- Relative Fluorescence Intensity, Average ([3]; BAP 200 μg/kg): 11.5
- Decrease of oxidative stress from the diabetic control ([3]; HFFD rats, 90 days): 2 fold
- Expression level of IL-1β (Normal = 1) (IL-1β; BAP 200 μg/kg): 1.62 ± 0.11

SMILES: O=C(/C=C/c1ccc(O)cc1)CC(=O)/C=C/c1ccc(O)cc1 [BDMC, Bisdemethoxycurcumin]
- Anti-DPP4 activity ([4]; Conc 12.5 (unit uncertain)): 43.58
- Anti-DPP4 activity ([4]; Conc 25 (unit uncertain)): 56.07
- Anti-DPP4 activity ([4]; Conc 50 (unit uncertain)): 58.55

SMILES: COc1cc(/C=C/C(=O)CC(=O)/C=C/c2ccc(O)c(OC)c2)ccc1O [Curcumin, curcumin]
- Anti-DPP4 activity ([4]; Conc 12.5 (unit uncertain)): 14.11
- Anti-DPP4 activity ([4]; Conc 25 (unit uncertain)): 48.88
- Anti-DPP4 activity ([4]; Conc 50 (unit uncertain)): 70.29
- Effectiveness against DPP4 (comparison in words) ([4]; Table 11): as effective as AC3
- Anti-Glycation activity (glycation; 24 hrs (320/405), Conc 0.3125 mg/mL): 29.67
- Anti-Glycation activity (glycation; 24 hrs (320/405), Conc 0.625 mg/mL): 35.90
- Anti-Glycation activity (glycation; 72 hrs (320/405), Conc 0.625 mg/mL): 44.42

SMILES: COc1cc(/C=C/C(O)=C/C(=O)/C=C/c2ccc(O)cc2)ccc1O [DMC, demethoxycurcumin]
- Anti-DPP4 activity ([4]; Conc 12.5 (unit uncertain)): 23.56
- Anti-DPP4 activity ([4]; Conc 25 (unit uncertain)): 39.86
- Anti-DPP4 activity ([4]; Conc 50 (unit uncertain)): 62.60

SMILES: CN(C)C(=N)N=C(N)N [Metformin]
- Expression level of IL-6 (Normal = 1) (IL-6; Metformin 100 mg/kg): 1.04 ± 0.12
- Expression level of TNF-α (Normal = 1) (TNF-α; Metformin 100 mg/kg): 0.91 ± 0.22
- Reduction of RAGE expression (RAGE; metformin 100 mg/kg, pancreas): 6.9%
- Relative Fluorescence Intensity, Average ([3]; Metformin 100 mg/kg): 28.94
- Expression level of IL-1β (Normal = 1) (IL-1β; Metformin 100 mg/kg): 0.89 ± 0.05
